Experiments:
[1] = tested on: P. falciparum female gametocytes; assay: P. falciparum Dual Gamete Formation Assay (PfDGFA), female readout (Pfs25-positive female gametes); format: cell-based, Plasmodium falciparum NF54; settings: for Average inhibition female (%): average of replicates; for % inhibition female (individual replicates) R1: replicate R1; for % inhibition female (individual replicates) R3: replicate R3; for % inhibition female (individual replicates) R4: replicate R4
How it was run: (§1)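 NF54 mature gametocytes (d14), cpd 24 h 37°C hypoxic gas; trigger: xanthurenic acid ookinete medium + Cy3 anti-Pfs25, 4°C 4 min → 28°C 4 min. Male: exflagellation centres, brightfield x6. Female: Pfs25+ gametes, fluorescence, +24 h 28°C dark.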

[2] = tested on: P. falciparum male gametocytes; assay: P. falciparum Dual Gamete Formation Assay (PfDGFA), male readout (exflagellation); format: cell-based, Plasmodium falciparum NF54; settings: for Average inhibition male (%): average of replicates; for % inhibition male (individual replicates) R1: replicate R1; for % inhibition male (individual replicates) R4: replicate R4; for Activity: hit = >50% inhibition in male or female readout in at least 3 replicates, 0 = no class assigned; for % inhibition male (individual replicates) R3: replicate R3
How it was run: as §1

[3] = 2µM, 24h preincubation with gametocytes prior to induction of gametogenesis
[4] = 2µM, 24h preincubation, hits selected on >50% inhibition in the female readout across replicates
[5] = 2µM, 24h preincubation, hits selected on >50% inhibition in the male readout across replicates
[6] = PfDGFA at 2µM, 24h preincubation
[7] = PfDGFA at 2µM, 24h preincubation with gametocytes prior to induction of gametogenesis
[8] = PfDGFA at 2µM, 24h preincubation with gametocytes
[9] = number of replicates with >50% inhibition in the female readout, 2µM
[10] = number of replicates with >50% inhibition in the male readout, 2µM
[11] = 2µM, 24h preincubation, number of replicates with >50% inhibition in the female readout
[12] = 2µM, 24h preincubation, number of replicates with >50% inhibition in the male readout

O=C1O[C@H](c2ccccc2)[C@H](c2ccccc2)N(C(=O)OCc2ccccc2)[C@H]1Cc1ccccc1C1CCCC1 [TCMDC-137303]
Average inhibition female (%) [1, 3]: 4.6% | % inhibition female (individual replicates) R1 [1, 3]: 6.2% | % inhibition female (individual replicates) R3 [1, 3]: -0.36% | % inhibition female (individual replicates) R4 [1, 3]: 6.0% | HitlevelF [1, 4]: 0 | Average inhibition male (%) [2, 3]: -2.7% | % inhibition male (individual replicates) R1 [2, 3]: 16.1% | % inhibition male (individual replicates) R4 [2, 3]: -23.7% | HitlevelM [2, 5]: 0 | Activity [2, 6]: 0

CCc1cc2c3c(N)nc(N)nc3ccc2n1C(C)(C)C [TCMDC-137306]
% inhibition female (individual replicates) R1 [1, 7]: -1.8% | % inhibition female (individual replicates) R3 [1, 7]: -28.9% | % inhibition female (individual replicates) R4 [1, 7]: 1.8% | Average inhibition female (%) [1, 6]: -7.8% | % inhibition male (individual replicates) R1 [2, 7]: 25.5% | % inhibition male (individual replicates) R3 [2, 7]: 27.4% | % inhibition male (individual replicates) R4 [2, 7]: 15.6% | Average inhibition male (%) [2, 6]: 21.0%

CC(C)n1c(C(C)(C)C)cc2c3c(N)nc(N)nc3ccc21 [TCMDC-137311]
Average inhibition female (%) [1, 8]: -0.8% | % inhibition female (individual replicates) R1 [1, 8]: -8.1% | % inhibition female (individual replicates) R3 [1, 8]: 21.9% | % inhibition female (individual replicates) R4 [1, 8]: -9.1% | HitlevelF [1, 9]: 0 | Average inhibition male (%) [2, 8]: 66.3% | % inhibition male (individual replicates) R1 [2, 8]: 58.8% | % inhibition male (individual replicates) R3 [2, 8]: 70.2% | % inhibition male (individual replicates) R4 [2, 8]: 54.6% | HitlevelM [2, 10]: 4

COc1ccc2c(c1CCNCCCCNCCc1c(OC)ccc3c1CCCC3)CCCC2.CS(=O)(=O)O [TCMDC-137324]
Average inhibition female (%) [1, 8]: 79.4% | % inhibition female (individual replicates) R1 [1, 8]: 79.9% | % inhibition female (individual replicates) R3 [1, 8]: 84.0% | % inhibition female (individual replicates) R4 [1, 8]: 85.5% | HitlevelF [1, 9]: 4 | Average inhibition male (%) [2, 8]: 81.7% | % inhibition male (individual replicates) R1 [2, 8]: 91.2% | % inhibition male (individual replicates) R3 [2, 8]: 86.5% | % inhibition male (individual replicates) R4 [2, 8]: 98.0% | HitlevelM [2, 10]: 4

CC(C(=O)OCCOCn1cnc2c(=O)[nH]c(N)nc21)N(C)C(=O)OC(C)(C)C (stereo not drawn) [TCMDC-137343]
% inhibition female (individual replicates) R1 [1, 7]: 1.2% | % inhibition female (individual replicates) R3 [1, 7]: -8.6% | % inhibition female (individual replicates) R4 [1, 7]: 4.1% | Average inhibition female (%) [1, 6]: -0.55% | % inhibition male (individual replicates) R1 [2, 7]: 2.6% | % inhibition male (individual replicates) R4 [2, 7]: -43.6% | Average inhibition male (%) [2, 6]: -14.6%

Cl.c1ccc2c(Nc3ccc(Cc4ccc(Nc5c6ccccc6nc6ccccc56)cc4)cc3)c3ccccc3nc2c1 [TCMDC-137354]
Average inhibition female (%) [1, 3]: 87.8% | % inhibition female (individual replicates) R1 [1, 3]: 83.3% | % inhibition female (individual replicates) R3 [1, 3]: 91.0% | % inhibition female (individual replicates) R4 [1, 3]: 96.5% | HitlevelF [1, 11]: 4 | Average inhibition male (%) [2, 3]: 52.9% | % inhibition male (individual replicates) R1 [2, 3]: 49.4% | % inhibition male (individual replicates) R3 [2, 3]: 55.5% | % inhibition male (individual replicates) R4 [2, 3]: 71.3% | HitlevelM [2, 12]: 2

Cl.c1ccc2c(Nc3ccc(OCCOCCOc4ccc(Nc5c6ccccc6nc6ccccc56)cc4)cc3)c3ccccc3nc2c1 [TCMDC-137355]
Average inhibition female (%) [1, 3]: 29.1% | % inhibition female (individual replicates) R1 [1, 3]: 27.7% | % inhibition female (individual replicates) R3 [1, 3]: 5.6% | % inhibition female (individual replicates) R4 [1, 3]: 8.9% | HitlevelF [1, 11]: 1 | Average inhibition male (%) [2, 3]: 37.2% | % inhibition male (individual replicates) R1 [2, 3]: 36.9% | % inhibition male (individual replicates) R3 [2, 3]: -1.4% | % inhibition male (individual replicates) R4 [2, 3]: 40.2% | HitlevelM [2, 12]: 1

COc1cc(Cc2cnc(N)nc2N)cc(OCCCC(=O)O)c1OC [TCMDC-137359]
Average inhibition female (%) [1, 3]: 3.8% | % inhibition female (individual replicates) R1 [1, 3]: 8.3% | % inhibition female (individual replicates) R3 [1, 3]: -22.8% | % inhibition female (individual replicates) R4 [1, 3]: 31.0% | HitlevelF [1, 4]: 0 | Average inhibition male (%) [2, 3]: 4.4% | % inhibition male (individual replicates) R1 [2, 3]: 4.7% | % inhibition male (individual replicates) R3 [2, 3]: 7.0% | % inhibition male (individual replicates) R4 [2, 3]: 5.5% | HitlevelM [2, 5]: 0 | Activity [2, 6]: 0

CCc1nc(N)nc(N)c1-c1cccc(Cl)c1 [TCMDC-137371]
Average inhibition female (%) [1, 3]: 4.1% | % inhibition female (individual replicates) R1 [1, 3]: 14.2% | % inhibition female (individual replicates) R3 [1, 3]: -6.6% | % inhibition female (individual replicates) R4 [1, 3]: 5.2% | HitlevelF [1, 4]: 0 | Average inhibition male (%) [2, 3]: -6.5% | % inhibition male (individual replicates) R1 [2, 3]: 19.6% | % inhibition male (individual replicates) R3 [2, 3]: -24.6% | % inhibition male (individual replicates) R4 [2, 3]: -25.1% | HitlevelM [2, 5]: 0 | Activity [2, 6]: 0

CCCc1cc(OC)c(CC2c3cc(O)c(Cl)cc3C(c3ccccc3)CN2C)cc1OC.Cl (stereo not drawn) [TCMDC-137432]
Average inhibition female (%) [1, 3]: 7.6% | % inhibition female (individual replicates) R1 [1, 3]: -2.1% | % inhibition female (individual replicates) R3 [1, 3]: 40.4% | % inhibition female (individual replicates) R4 [1, 3]: -8.9% | HitlevelF [1, 4]: 0 | Average inhibition male (%) [2, 3]: 3.7% | % inhibition male (individual replicates) R1 [2, 3]: 2.4% | % inhibition male (individual replicates) R3 [2, 3]: -26.9% | % inhibition male (individual replicates) R4 [2, 3]: 27.9% | HitlevelM [2, 5]: 0 | Activity [2, 6]: 0

Cl.N=C(NCCCc1ccccc1)c1cccc(C(=N)NCCCc2ccccc2)n1 [TCMDC-137453]
Average inhibition female (%) [1, 3]: 26.7% | % inhibition female (individual replicates) R1 [1, 3]: 21.1% | % inhibition female (individual replicates) R3 [1, 3]: 29.3% | % inhibition female (individual replicates) R4 [1, 3]: 27.4% | HitlevelF [1, 11]: 0 | Average inhibition male (%) [2, 3]: 15.3% | % inhibition male (individual replicates) R1 [2, 3]: 11.4% | % inhibition male (individual replicates) R3 [2, 3]: -5.0% | % inhibition male (individual replicates) R4 [2, 3]: 33.6% | HitlevelM [2, 12]: 0

CC(CNC(=N)c1cccc(C(=N)NCC(C)Oc2cccc(C3CCCCC3)c2)n1)Oc1cccc(C2CCCCC2)c1.Cl (stereo not drawn) [TCMDC-137455]
Average inhibition female (%) [1, 8]: 40.6% | % inhibition female (individual replicates) R1 [1, 8]: 53.6% | % inhibition female (individual replicates) R3 [1, 8]: 30.8% | % inhibition female (individual replicates) R4 [1, 8]: 44.6% | HitlevelF [1, 9]: 1 | Average inhibition male (%) [2, 8]: 81.3% | % inhibition male (individual replicates) R1 [2, 8]: 90.7% | % inhibition male (individual replicates) R3 [2, 8]: 87.0% | % inhibition male (individual replicates) R4 [2, 8]: 101.3% | HitlevelM [2, 10]: 3

N=C(NCC1CC1c1ccccc1)c1cccc(C(=N)NCC2CC2c2ccccc2)n1 (stereo not drawn) [TCMDC-137456]
Average inhibition female (%) [1, 8]: 33.5% | % inhibition female (individual replicates) R1 [1, 8]: 27.8% | % inhibition female (individual replicates) R3 [1, 8]: 24.0% | % inhibition female (individual replicates) R4 [1, 8]: 33.0% | HitlevelF [1, 9]: 0 | Average inhibition male (%) [2, 8]: 66.3% | % inhibition male (individual replicates) R1 [2, 8]: 75.4% | % inhibition male (individual replicates) R3 [2, 8]: 23.0% | % inhibition male (individual replicates) R4 [2, 8]: 81.6% | HitlevelM [2, 10]: 3

CN1CCN(CCCCNc2c3ccccc3nc3ccccc23)CC1 [TCMDC-137479]
Average inhibition female (%) [1, 3]: 21.2% | % inhibition female (individual replicates) R1 [1, 3]: 27.6% | % inhibition female (individual replicates) R3 [1, 3]: -3.0% | % inhibition female (individual replicates) R4 [1, 3]: 19.8% | HitlevelF [1, 11]: 0 | Average inhibition male (%) [2, 3]: 37.9% | % inhibition male (individual replicates) R1 [2, 3]: 56.6% | % inhibition male (individual replicates) R3 [2, 3]: -27.6% | % inhibition male (individual replicates) R4 [2, 3]: 45.6% | HitlevelM [2, 12]: 2

Reference: PMC10584170, “Machine learning-based phenotypic imaging to characterise the targetable biology of Plasmodium falciparum male gametocytes for the development of transmission-blocking antimalarials” (PLOS Pathogens, 2023)
